The NIST ThermoML archive (doi:10.1016/j.fluid.2018.12.025)
Where “and” joins values, the source holds several entries; their conditions need not be identical. Equal entries are not always repeated.

Conditions: 101.33 kPa, Liquid, transient hot wire

O [water]
Conditions | thermal conductivity [W/m/K]
276.41 K | 0.5538
300.61 K | 0.6257
303.32 K | 0.6103
306.14 K | 0.6095
325.57 K | 0.6581
329.48 K | 0.6422
333.39 K | 0.6498
350.97 K | 0.6877
355.05 K | 0.672
356 K | 0.6781
356.22 K | 0.6716
356.54 K | 0.6823
356.76 K | 0.6589
356.9 K | 0.6827
360.47 K | 0.6765
361.52 K | 0.6756

CCCC[N+]1(C)CCCC1.O=S(=O)([N-]S(=O)(=O)C(F)(F)F)C(F)(F)F
Conditions | thermal conductivity [W/m/K]
279.16 K | 0.1159
294.59 K | 0.115
306.65 K | 0.1157
334.78 K | 0.114
335.13 K | 0.1143
338.98 K | 0.1136
353.98 K | 0.1153
362.23 K | 0.1135
364.36 K | 0.1142
383.56 K | 0.1134
419.99 K | 0.1126
438.07 K | 0.1123

Cc1ccccc1 [toluene]
Conditions | thermal conductivity
276.19 K | 0.1359 W/m/K
278.42 K | 0.1339 W/m/K
281.25 K | 0.1324 W/m/K and 0.1325 W/m/K
302.05 K | 0.129 W/m/K
304.59 K | 0.1268 W/m/K
329.65 K | 0.1235 W/m/K
331.24 K | 0.1237 W/m/K
337.63 K | 0.1242 W/m/K
339.65 K | 0.122 W/m/K
339.85 K | 0.1226 W/m/K
340.17 K | 0.12 W/m/K
351.33 K | 0.1166 W/m/K
351.55 K | 0.12 W/m/K
352.25 K | 0.1179 W/m/K

CCC[N+]1(C)CCCC1.O=S(=O)([N-]S(=O)(=O)C(F)(F)F)C(F)(F)F
Conditions | thermal conductivity [W/m/K]
279.07 K | 0.118
300.88 K | 0.1176
318.32 K | 0.1174
326.71 K | 0.1167
340.17 K | 0.1178
351.81 K | 0.1166
354.65 K | 0.1172
389.67 K | 0.1162
408.29 K | 0.1142
409.24 K | 0.1156
434.89 K | 0.115
435.53 K | 0.1138
